Paper PMC9374744, “Structural basis for receptor selectivity and inverse agonism in S1P5 receptors” (Nature Communications, 2022)
Values joined by “and” are separate entries in the source; they are usually repeats but may differ in a detail not shown here. Identical values can stand only once.

How the values were obtained:
human S1P5 E112Q mutant = human S1P5 E112Q mutant (Homo sapiens, UniProt Q9H228, E112Q); experiment: BRET-based cAMP Gi signaling assay, S1P5 E112Q; conditions: inverse agonism
Sequence of human S1P5 E112Q mutant (Q9H228 whole entry E112Q): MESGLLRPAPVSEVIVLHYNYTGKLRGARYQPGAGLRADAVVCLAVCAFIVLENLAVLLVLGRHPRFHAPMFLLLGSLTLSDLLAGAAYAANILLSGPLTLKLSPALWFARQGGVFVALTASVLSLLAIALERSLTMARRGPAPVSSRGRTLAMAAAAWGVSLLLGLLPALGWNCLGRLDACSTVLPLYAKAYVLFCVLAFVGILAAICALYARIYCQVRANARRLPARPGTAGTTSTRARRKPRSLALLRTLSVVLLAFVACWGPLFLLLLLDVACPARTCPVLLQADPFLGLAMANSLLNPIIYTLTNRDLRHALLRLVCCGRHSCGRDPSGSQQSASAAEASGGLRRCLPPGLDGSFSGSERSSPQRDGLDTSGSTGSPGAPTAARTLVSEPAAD

human S1P5 T79A mutant = human S1P5 T79A mutant (Homo sapiens, UniProt Q9H228, T79A); experiment: BRET-based cAMP Gi signaling assay, S1P5 T79A; conditions: for EC50: inverse agonism; for BRET signal, raw replicates: Suppl. Fig. 6d, listed as ONO
Sequence of human S1P5 T79A mutant (Q9H228 whole entry T79A): as the sequence (Q9H228 whole entry E112Q) above, with T79A, Q112E counted along it

human S1P5 V115L mutant = human S1P5 V115L mutant (Homo sapiens, UniProt Q9H228, V115L); experiment: BRET-based cAMP Gi signaling assay, S1P5 V115L; conditions: inverse agonism
Sequence of human S1P5 V115L mutant (Q9H228 whole entry V115L): as the sequence (Q9H228 whole entry E112Q) above, with Q112E, V115L counted along it

human S1P5 E112A mutant = human S1P5 E112A mutant (Homo sapiens, UniProt Q9H228, E112A); experiment: BRET-based cAMP Gi signaling assay, S1P5 E112A; conditions: inverse agonism
Sequence of human S1P5 E112A mutant (Q9H228 whole entry E112A): as the sequence (Q9H228 whole entry E112Q) above, with Q112A counted along it

human S1P5 L318Q mutant = human S1P5 L318Q mutant (Homo sapiens, UniProt Q9H228, L318Q); experiment: BRET-based cAMP Gi signaling assay, S1P5 L318Q; conditions: inverse agonism
Sequence of human S1P5 L318Q mutant (Q9H228 whole entry L318Q): as the sequence (Q9H228 whole entry E112Q) above, with Q112E, L318Q counted along it

[1] = Figure 2c source data, N/R = no response

**Q.** With `O=C(O)CCCN1CCc2cccc(OCCc3cccc4ccccc34)c2CC1` [ONO-5430608, 4-{6-[2-(1-naphthyl)ethoxy]-1,2,4,5-tetrahydro-3H-3-benzazepin-3-yl} butanoic acid] as the compound, how does the “ONO-5430608 pEC50, single experiments #1-#3” value (human S1P5 E112Q mutant; [1]) read?
**A.** N/R

**Q.** And the “ONO, pEC50, M” value (human S1P5 E112Q mutant; n=3, N/R = no response)?
**A.** N/R

**Q.** What about the EC50 (human S1P5 T79A mutant; ONO, pEC50, M, T79A, mean ± SD, n=3) of the same compound?
**A.** 5.13 nM

**Q.** What about the EC50 (human S1P5 T79A mutant; ONO-5430608 pEC50, single experiments #1-#3, T79A, Figure 2c source data) of the same compound?
**A.** 3.81 nM and 5.96 nM and 5.8 nM

**Q.** What about the “BRET signal, raw replicates” value (human S1P5 T79A mutant; [ONO] 0.169351 nM, T79A) of the same compound?
**A.** 0.7648 and 0.7694 and 0.7618 (2×) and 0.7719 and 0.7737 and 0.7678 and 0.7602 and 0.7581

**Q.** What about the “BRET signal, raw replicates” value (human S1P5 T79A mutant; [ONO] 0.508053 nM, T79A) of the same compound?
**A.** 0.7658 and 0.7637 (2×) and 0.7584 and 0.7703 and 0.7711 and 0.7719 and 0.7599 and 0.7561

**Q.** And the “BRET signal, raw replicates” value (human S1P5 T79A mutant; [ONO] 1.52416 nM, T79A)?
**A.** 0.7571 and 0.7588 and 0.7577 and 0.7674 and 0.7689 and 0.7688 and 0.7557 and 0.7543 and 0.7567

**Q.** What about the “BRET signal, raw replicates” value (human S1P5 T79A mutant; [ONO] 4.57247 nM, T79A) of the same compound?
**A.** 0.7445 and 0.7467 and 0.7472 (2×) and 0.7504 and 0.7523 and 0.7521 and 0.7458 and 0.7451

**Q.** And the “BRET signal, raw replicates” value (human S1P5 T79A mutant; [ONO] 13.7174 nM, T79A)?
**A.** 0.7344 and 0.7321 and 0.7375 and 0.7326 and 0.7336 and 0.7328 and 0.7266 and 0.7286 and 0.7299

**Q.** What about the “BRET signal, raw replicates” value (human S1P5 T79A mutant; [ONO] 41.1523 nM, T79A) of the same compound?
**A.** 0.7277 and 0.7202 and 0.7265 and 0.7247 and 0.7224 and 0.7225 and 0.7195 and 0.7262 and 0.7173

**Q.** What about the “BRET signal, raw replicates” value (human S1P5 T79A mutant; [ONO] 123.457 nM, T79A) of the same compound?
**A.** 0.7246 and 0.7211 and 0.7132 and 0.7206 and 0.7203 and 0.7177 and 0.7146 and 0.7143 and 0.7168

**Q.** And the “BRET signal, raw replicates” value (human S1P5 T79A mutant; [ONO] 370.37 nM, T79A)?
**A.** 0.7198 and 0.7165 and 0.7203 and 0.7175 and 0.72 and 0.7188 and 0.7152 and 0.7138 and 0.7182

**Q.** And the “BRET signal, raw replicates” value (human S1P5 T79A mutant; [ONO] 1111.11 nM, T79A)?
**A.** 0.7229 and 0.7217 and 0.7211 and 0.7178 and 0.7185 and 0.7189 and 0.7126 and 0.7148 and 0.7145

**Q.** And the “BRET signal, raw replicates” value (human S1P5 T79A mutant; [ONO] 3333.33 nM, T79A)?
**A.** 0.7168 and 0.7147 and 0.7207 and 0.7195 and 0.7142 and 0.7166 and 0.7162 and 0.7151 and 0.7155

**Q.** And the EC50 (human S1P5 V115L mutant; ONO, pEC50, M, V115L, mean ± SD, n=3)?
**A.** 25.1 nM

**Q.** And the EC50 (human S1P5 V115L mutant; ONO-5430608 pEC50, single experiments #1-#3, V115L, Figure 2c source data)?
**A.** 20.7 nM and 25.9 nM and 22.9 nM

**Q.** What about the “ONO-5430608 pEC50, single experiments #1-#3” value (human S1P5 E112A mutant; [1]) of the same compound?
**A.** N/R

**Q.** What about the “ONO, pEC50, M” value (human S1P5 E112A mutant; n=3, N/R = no response) of the same compound?
**A.** N/R

**Q.** What about the EC50 (human S1P5 L318Q mutant; ONO, pEC50, M, L318Q, mean ± SD, n=3) of the same compound?
**A.** 22.4 nM

**Q.** What about the EC50 (human S1P5 L318Q mutant; ONO-5430608 pEC50, single experiments #1-#3, L318Q, Figure 2c source data) of the same compound?
**A.** 23 nM and 24.6 nM and 20.4 nM
